Holding throughout (format): functional
The subject of one assay is Bacillus cereus. Briefly: Antibacterial activity against Bacillus cereus ATCC 10702.
Assay [1] has as its system Staphylococcus epidermidis. Briefly: Antibacterial activity against Staphylococcus epidermidis ATCC 12228.
A further assay has as its system Escherichia coli. Briefly: Antibacterial activity against Escherichia coli ATCC 25922.

We go through two compounds from ChEMBL document CHEMBL1141817, “A novel extracellular diterpenoid with antibacterial activity from the cyanobacterium Nostoc commune” (1999).

Molecules are shown by their SMILES. In brackets after ≈: the same amount, converted by molar mass.

Take `O=C(N[C@H](CO)[C@H](O)c1ccc([N+](=O)[O-])cc1)C(Cl)Cl` [CHLORAMPHENICOL]: the values for the minimal inhibitory concentration (MIC) (in the assay with Bacillus cereus; in assay [1]; in the assay on Escherichia coli) were 8 µg/mL (≈ 24.8 µM), 4 µg/mL (≈ 12.4 µM) and 64 µg/mL (≈ 198 µM), respectively.
On to `C[C@@H]1CC=C2[C@@H](CC[C@H]3C(C)(C)[C@H](O)CC[C@@]23C)[C@]1(C)Cc1cc(C(=O)O)ccc1O` [NOSCOMIN], for which the results for the minimal inhibitory concentration (MIC) (in the assay with Bacillus cereus; in assay [1]; with Escherichia coli) were 32 µg/mL (≈ 75 µM), 8 µg/mL (≈ 18.8 µM) and 128 µg/mL (≈ 300 µM), respectively.
